This note sets out measurements from ChEMBL document CHEMBL6134800, “Applications of innovative synthetic strategies in anticancer drug discovery: The driving force of new chemical reactions” (Bioorg Med Chem Lett, 2025).

In test [1] the test system is HeLa. The test can be described thus: Antiproliferative activity against human HeLa cells assessed as reduction in cell viability by MTT assay. Format: functional, cell-based. For orientation: Tetrazolium dyes change colour on reduction, which living cells bring about.
The subject of a further test is KBv200. The test can be described thus: Cytotoxicity against human KBv200 cells assessed as reduction in cell viability incubated for 72 hrs by SRB assay. Format: functional, cell-based. To be noted: KBv200, 72 h.
The next test has as its system K562/Adr. The test can be described thus: Antiproliferative activity against human K562/Adr cells assessed as reduction in cell growth incubated for 72 hrs by MTT assay. Format: functional, cell-based.
The next test deals with HepG2. The test can be described thus: Cytotoxicity against human HepG2 cells assessed as reduction in cell viability incubated for 24 hrs by CCK-8 assay. Format: functional, cell-based. To be noted: HepG2, 24 h.
In test [2] the test system is HeLa. The test can be described thus: Antiproliferative activity against human HeLa cells. Type of test: functional, cell-based.
The test system of another test is CAL-27. Nature of the test: Antiproliferative activity against human CAL-27 cells assessed as reduction in cell viability incubated for 24 hrs by MTT assay. Format: functional, cell-based. To be noted: CAL-27, 24 h.
Test [3] deals with Indoleamine 2,3-dioxygenase 1 (Homo sapiens, UniProt P14902). Nature of the test: Inhibition of N-terminal His-tagged human IDO1 extracted from Escherichia coli.
Another test relates to MCF7. The test can be described thus: Antiproliferative activity against human MCF7 cells assessed as reduction in cell viability incubated for 72 hrs by MTT assay. Type of test: functional, cell-based. To be noted: MCF7, 72 h.
Test [4] deals with HeLa. Nature of the test: Antiproliferative activity against human HeLa cells assessed as reduction in cell growth by MTT assay. Format: functional, cell-based.
Test [5] concerns A549. The test can be described thus: Antiproliferative activity against human A549 cells assessed as reduction in cell growth by MTT assay. Format: functional, cell-based.
In the next test the test system is HCC1806. Nature of the test: Antiproliferative activity against human HCC1806 cells assessed as inhibition of cell growth at 30 uM relative to control. Format: functional.
Test [6] deals with HCT-116. Nature of the test: Antiproliferative activity against human HCT-116 cells assessed as inhibition of cell growth at 20 uM incubated for 48 hrs by MTT assay relative to control. Format: functional.
For test [7], the system named is A549. The test can be described thus: Antiproliferative activity against human A549 cells assessed as inhibition of cell growth at 20 uM incubated for 48 hrs by MTT assay relative to control. Format: functional.
The subject of test [8] is Mycobacterium tuberculosis. The test can be described thus: Antimycobacterial activity against Mycobacterium tuberculosis H37Rv assessed as bacterial growth inhibition by microplate Alamar blue assay. Format: functional. Background: Alamar Blue is a resazurin reagent that responds to reducing activity.
Another test deals with U-87 MG. Nature of the test: Antiproliferative activity against human U-87 MG cells assessed as reduction in cell viability by MTT assay. Format: functional, cell-based, U-87MG ATCC.
Another test relates to Candida albicans. Nature of the test: Antifungal activity against Candida albicans MTCC 3020 assessed as reduction in fungal growth. Type of test: functional.
The subject of another test is MDA-MB-231. Nature of the test: Antiproliferative activity against human MDA-MB-231 cells by CCK8 assay. Type of test: functional, cell-based.
The subject of a further test is SMMC-7721. The test can be described thus: Antiproliferative activity against human SMMC-7721 cells by CCK8 assay. Format: functional, cell-based.
For another test, the system named is QGY-7703. Nature of the test: Antiproliferative activity against human QGY-7703 cells by CCK8 assay. Format: functional, cell-based.
The subject of a further test is L02. The test can be described thus: Antiproliferative activity against human L02 cells by CCK8 assay. Format: functional, cell-based.
Test [9] concerns HCT-116. The test can be described thus: Anticancer activity against human HCT-116 cells assessed as inhibition of cell viability at 20 uM relative to control. Format: functional.
In test [10] the test system is HCT-116. The test can be described thus: Anticancer activity against human HCT-116 cells assessed as reduction in cell viability. Format: functional, cell-based.

What is called IC50 is the concentration that gives 50% inhibition. Broadly, the inhibition is the share of the control response that was lost under treatment. In general, MIC refers to the smallest concentration in the dilution series that meets the test's criterion for growth inhibition.

Structures are written as SMILES. ≈ marks a conversion by molar mass, not a printed value.

Indoleamine 2,3-dioxygenase 1, sequence (P14902 whole entry): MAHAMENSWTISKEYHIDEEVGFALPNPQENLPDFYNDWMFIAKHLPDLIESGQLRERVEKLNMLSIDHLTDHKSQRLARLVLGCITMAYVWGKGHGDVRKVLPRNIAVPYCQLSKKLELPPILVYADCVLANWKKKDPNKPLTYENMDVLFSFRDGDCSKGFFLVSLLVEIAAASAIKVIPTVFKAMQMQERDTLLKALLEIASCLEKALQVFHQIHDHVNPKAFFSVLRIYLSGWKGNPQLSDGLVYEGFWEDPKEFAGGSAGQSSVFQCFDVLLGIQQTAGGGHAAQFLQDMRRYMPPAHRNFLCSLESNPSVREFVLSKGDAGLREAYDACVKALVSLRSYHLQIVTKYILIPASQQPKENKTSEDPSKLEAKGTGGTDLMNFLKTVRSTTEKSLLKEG

In the case of `COC(=O)[C@H](CC(C)C)NC(=O)[C@H](Cc1ccccc1C1=CC(=O)C=CC1=O)NC(=O)[C@@H](NC(=O)OC(C)(C)C)C(C)(C)C`, in the test on HeLa [1], the IC50 stood at 40 µM.
For the molecule `CC(=O)O[C@@]12CO[C@@H]1C[C@H](O)[C@@]1(C)C(=O)[C@H](O)C3=C(C)[C@@H](OC(=O)[C@H](O)[C@@H](NC(=O)OC(C)(C)C)c4ccccc4)C[C@@](O)([C@@H](OC(=O)c4ccccc4)[C@H]21)C3(C)C` [DOCETAXEL ANHYDROUS], the half-maximal inhibitory concentration (IC50) with KBv200 turned out to be 0.104 µM; in the test on K562/Adr, 1.03 µM.
Consider `FC(F)(F)C1(Nc2ccccc2)Cc2ccsc2-c2nc3ccccc3n21` (centres undefined), for which the IC50 in the test on HepG2 amounted to 9.6 µM.
For `Cc1ccccc1NC1(C(F)(F)F)Cc2ccccc2C(=O)N1CCO` (centres undefined), the half-maximal inhibitory concentration (IC50) in the test on HeLa [2] was 1.13 µM.
Consider `O=C1NC(/C=C2/C(c3ccccc3)=C(c3ccccc3)c3ccccc32)=NC2c3ccccc3OC12` (centres undefined), for which, in the test on CAL-27, the IC50 amounted to 8.79 µM.
The molecule `O=C1c2ccccc2-n2c1c(-c1ccc(Cl)cc1Br)c(S(=O)(=O)c1ccccc1)c2-c1ccccc1` returned an IC50 in [3] of 0.0823 µM.
Regarding `Cc1ccccc1C(c1c[nH]c2ccccc12)c1c[nH]c2ccccc12`, the IC50 in the test with MCF7 was determined as 5.69 µM.
On the same count and under the same terms, as for `C[Si](C)(C)c1ccc(C(c2c[nH]c3ccccc23)c2c[nH]c3ccccc23)cc1`, the figure is 6.71 µM.
Regarding `Cc1c2n(c3ccccc13)C(O)(C(F)(F)F)C=C2c1ccccc1` (centres undefined), the values for the IC50 with HeLa [4] and in the test on A549 [5] were 31.6 µM and 1.26 µM, respectively.
`Cc1cccc2c1C(=O)N1CCN(c3ccccc3)C1(C(F)(F)F)C2` (centres undefined) returned a 50% inhibitory concentration (IC50) in the test with HeLa [2] of 1.43 µM.
In the case of `Cc1c2n(c3ccc(F)cc13)C(O)(C(F)(F)F)C=C2c1ccccc1` (centres undefined), the IC50 in the test on HeLa [4] was 2.69 µM; in the test on A549 [5] it was 6.34 µM.
With `CC[C@H](C)[C@@H]1NC(=O)[C@H](Cc2ccccc2)NC(=O)CC[C@@H](C(=O)OC)NC(=O)COC(=O)/C=C/c2cccc3c(c[nH]c23)C[C@@H](C(=O)OCc2ccccc2)NC1=O`, the inhibition at 30 µM with HCC1806 amounted to 99%.
With `COc1ccc(-c2c(-c3cc(OC)c(OC)c(OC)c3)cc(-c3cc(OC)c(OC)c(OC)c3)oc2=O)cc1OC`, the inhibition at 20 µM came out at 89.4% in the test on HCT-116 [6] and 82.9% in the test on A549 [7].
On to `CCOC(=O)C1=C(Nc2ccc(Cl)cc2)C[C@H](c2ccc(OC)cc2)N(c2ccc(Cl)cc2)[C@H]1c1ccc(OC)cc1`, for which the minimal inhibitory concentration (MIC) in [8] amounted to 12.5 µg/mL.
`COC(=O)[C@@H]1Cc2c[nH]c3c(cccc23)/C=C/C(=O)OCCCC(=O)N[C@@H](CC(C)C)C(=O)N2CCC[C@H]2C(=O)N[C@@H](Cc2ccccc2)C(=O)N1`: the inhibition at 30 µM with HCC1806 amounted to 97%.
Regarding `COC(=O)[C@@H](NC(=O)[C@H](CC(C)C)NC(=O)[C@H](Cc1ccccc1C1=CC(=O)C=CC1=O)NC(=O)[C@@H](NC(=O)OC(C)(C)C)C(C)(C)C)C(C)C`, in the test on U-87 MG, the IC50 came out at 32 µM.
Consider `CCC1=C[C@@H]2CN(C1)Cc1c([nH]c3ccccc13)[C@@](C(=O)OC)(c1cc3c(cc1OC)N(C)[C@H]1[C@@](O)(C(=O)OC)[C@H](OC(C)=O)[C@]4(CC)C=CCN5CC[C@]31[C@@H]54)C2` [VINORELBINE], for which the IC50 with KBv200 came to 0.434 µM; with K562/Adr it was 0.558 µM.
As to `CC12CCCCN1c1ccc(Br)cc1C(=O)O2` (centres undefined), the MIC in the test with Candida albicans is 12.5 µg/mL (≈ 42.2 µM).
With `COC(=O)[C@]1(C)CC[C@]2(C)CC[C@]3(C)C4=CC=C5C(=CC(=O)C(O)=C5C)[C@]4(C)CC[C@@]3(C)[C@@H]2C1` [PRISTIMERIN], the IC50 in the test with MDA-MB-231 stood at 1.01 µM; in the test with SMMC-7721 it was 1.97 µM; in the test on QGY-7703, 2.34 µM; in the test on L02 it was 3.6 µM.
Consider `CC(C)OC(=O)C1=CN(c2cccc(Br)c2)CC(O)(c2ccccc2)O1` (centres undefined), for which the inhibition at 20 µM in the test on HCT-116 [9] was found to be 59%. Besides, the IC50 in the test with HCT-116 [10] came to 7.6 µM.
